The values below come from paper PMC12749166, “Fragment-based drug design of a bacterial kinase inhibitor capable of increasing the antibiotic sensitivity of clinical isolates” (Communications Chemistry, 2025).

The structures appear in SMILES notation. Converted amounts (≈) assume the structure as drawn. Where two headings read alike, the source gives them in different places. Some results are limits rather than exact numbers.

In assay [1] the target is T1, APH(2”)-IVa (Enterococcus casseliflavus, UniProt O68183). In words: biochemical. The note with it: read-out: ΔTm (°C). The class given is binding. Here is the method:
Thermal shift assays were performed using an RTqPCR machine Mx3005P (Stratagene) in 96-well plates (Thermo-Fast low Profile, ThermoScientific) by mixing the protein at 5 µM, SYPRO® Orange (Sigma Aldrich) at […], and fragments at 500 µM. Fluorescence was followed with Cy3 and SYAL filters. Denaturation curves were collected using MxPro-Mx3005P v4.10 software and analyzed using the implemented version of wTSA-CRAFT[36].

In assay [2] the target is T1, APH(2”)-IVa.
In assay [3] the target is T1, APH(2”)-IVa. In words: biochemical. To be noted: Ki (µM), inhibition constant, ATP-competitive; 0-2 mM MgATP, 100 µM kanamycin A, global fitting.
The subject of assay [4] is P. aeruginosa clinical isolates. Briefly: MIC by broth micro-dilution. The class given is cell-based. To be noted: Pseudomonas aeruginosa, read-out: MIC. For orientation: Broth dilution looks for growth in wells or tubes with falling amounts of substance.
The subject of another assay is S. aureus C0032. In words: MIC by broth micro-dilution. The class given is cell-based. The note with it: Staphylococcus aureus; S. aureus C0032, aph(3')-IIIa ant(6); read-out: MIC.
Where [5] appears, read: P. aeruginosa C0214, aph(3')-IIb.
The mark [6] stands for this setting: P. aeruginosa C0307, aph(3')-IIb.

T1 sequence (O68183 1-301): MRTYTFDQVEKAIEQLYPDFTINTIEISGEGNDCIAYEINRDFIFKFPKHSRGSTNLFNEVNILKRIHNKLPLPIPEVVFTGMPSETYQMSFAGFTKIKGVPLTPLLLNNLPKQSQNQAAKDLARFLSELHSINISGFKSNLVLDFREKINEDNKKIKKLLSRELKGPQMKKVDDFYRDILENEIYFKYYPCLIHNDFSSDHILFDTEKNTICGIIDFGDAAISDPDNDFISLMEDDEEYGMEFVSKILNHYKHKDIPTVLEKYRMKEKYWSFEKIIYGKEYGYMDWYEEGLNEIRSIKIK

Broadly, the ΔTm is the shift of the melting midpoint relative to a reference. With `O=C(Nc1ccc(Br)cc1)Nc1ccc(Br)cn1` [Compound 7], on APH(2”)-IVa [1], the ΔTm at 500 µM was -0.26 °C.
As for `Cn1nccc1C1CCCN(c2cc(N)ncc2Cl)C1` (centres unmarked) [Compound 27], the ΔTm at 500 µM at APH(2”)-IVa [1] was -1.45 °C.
Usually Inhibition stands for the relative decrease from the control value, in per cent. Low readings indicate a response near the control, high ones a response far below the control. The term Ki denotes the equilibrium dissociation constant of an inhibitor or competing ligand from its target. Higher therefore signals lower affinity. On to `Nc1ccccn1` [Compound F68], for which the ΔTm at 500 µM on APH(2”)-IVa [1] was -0.27 °C. Also, the Inhibition on APH(2”)-IVa [2] is 11%. Also, the affinity on APH(2”)-IVa [3], expressed as Ki, was 260 µM.
Usually MIC stands for the lowest concentration that inhibits growth of the organism. In the case of `CNC(C)C1CCC(N)C(OC2C(N)CC(N)C(OC3OCC(C)(O)C(NC)C3O)C2O)O1` (centres unmarked) [Gentamicin], the MIC is 2 µg/mL (≈ 4.19 µM) in assay [4] (setting [5]), 2 µg/mL (≈ 4.19 µM) in assay [4] (setting [6]) and less than 1 µg/mL in the assay on S. aureus C0032.
For `Nc1ccc(Cl)cn1` [Compound F69], the “Inhibition relative to F68” value at APH(2”)-IVa [2] (500 µM, times more inhibition than F68) is reported as 6.2 times.
In the case of `O=C(NCCc1ccn(-c2ccccc2)n1)c1cc(NC2CC2)ncc1Cl` [Compound 36-9], on APH(2”)-IVa [3], the Ki turned out to be 13.4 µM. This lies in the double-digit micromolar range.
Turning to `Nc1cncc(-c2cc[nH]n2)c1` [Compound 58], at APH(2”)-IVa [1], the ΔTm at 500 µM was found to be 1.18 °C.
As to `Nc1ncc(Cl)cc1S(=O)(=O)N1CCCNCC1` [Compound 17], at APH(2”)-IVa [1], the ΔTm at 500 µM stood at 1.05 °C.
The same measure, in the same setting: the value for `Nc1cc(N2CCC(C(=O)N3CCCCC3)CC2)c(Cl)cn1` [Compound 28] was -1.78 °C.
In turn, `Clc1cnc2[nH]ccc2c1-c1ccc[nH]1` [Compound 85] gave a Ki on APH(2”)-IVa [3] of 1.74 µM.
Same read-out and setting: the value for `CN(C)CCNC(=O)c1cc(NC2CC2)ncc1Cl` [Compound 36-7] was 18.6 µM.
Still for that read-out and setting: the result for `NC(=O)CNC(=O)c1cc(NC2CC2)ncc1Cl` [Compound 36-3] reads 32.3 µM; that for `NC(=O)c1c[nH]c2ncc(Cl)cc12` [Compound 80], 10.3 µM.
`Nc1ncc(Cl)cc1S(=O)(=O)N1CCCC(N)C1` (centres unmarked) [Compound 16]: the ΔTm at 500 µM on APH(2”)-IVa [1] was determined as 1.7 °C.
For the compound `CN(C)C(=O)c1c[nH]c2ncc(Cl)cc12` [Compound 82], on APH(2”)-IVa [3], the Ki amounted to 19.7 µM.
`Nc1ncc(Cl)cc1S(=O)(=O)N1CCCCC1c1ncc[nH]1` (centres unmarked) [Compound 24]: the ΔTm at 500 µM on APH(2”)-IVa [1] was determined as 1.99 °C.
On APH(2”)-IVa [3], `O=C(NCCO)c1cc(NC2CC2)ncc1Cl` [Compound 36-5] came in with an inhibition constant (Ki) of 25.6 µM. That is a double-digit micromolar value.
Same read-out and setting: the result for `CNC(=O)c1c[nH]c2ncc(Cl)cc12` [Compound 81] reads 9.47 µM.
With `O=C(Nc1ccc(Cl)cc1)Nc1ccc(Cl)cn1` [Compound 6], on APH(2”)-IVa [1], the ΔTm at 500 µM came out at 0.17 °C.
Same read-out and setting: the result for `Clc1ccc(NCCc2ccccc2)nc1` [Compound 11] reads 0.48 °C.
On the same count and under the same terms, the value for `Nc1ncc(Cl)cc1S(=O)(=O)NC1CCCNC1` (centres unmarked) [Compound 23] was 0.33 °C.
Take `C[C@@H](O)[C@H]1C(=O)N2C(C(=O)O)=C(SCCN=CN)C[C@H]12` [Imipenem]: the figures for the MIC in assay [4] (setting [5]) and in assay [4] (setting [6]) were greater than 2 µg/mL and 2 µg/mL (≈ 6.68 µM), respectively.
For the compound `O=C(Nc1ccc(O)cc1)Nc1ccc(F)cc1` [Compound 37], at APH(2”)-IVa [1], the ΔTm at 500 µM stood at 1.17 °C.
In the case of `Clc1cnc2[nH]ccc2c1` [Compound 2, 5-chloro-7-azaindole], at APH(2”)-IVa [2] (500 µM, times more inhibition than F136), the “Inhibition relative to F136” value is recorded as 5.9 times. The Ki on APH(2”)-IVa [3] worked out at 9.63 µM.
`NCCNC(=O)c1cc(NC2CC2)ncc1Cl` [Compound 36-8] showed a Ki on APH(2”)-IVa [3] of 16.3 µM. This counts as double-digit micromolar.
Same read-out and setting: the result for `NNC(=O)c1cc(NC2CC2)ncc1Cl` [Compound 36-6] reads 11.4 µM; that for `Clc1cnc2[nH]ccc2c1-c1ccsc1` [Compound 86], 1.75 µM; that for `O=C(O)c1c[nH]c2ncc(Cl)cc12` [Compound 79], 27.5 µM.
As for `C[C@@H](O)[C@H]1C(=O)N2C(C(=O)O)=C(S[C@@H]3CN[C@H](C(=O)N(C)C)C3)[C@H](C)[C@H]12` [Meropenem], the minimum inhibitory concentration (MIC) is 0.5 to 1 µg/mL (≈ 1.3 to 2.61 µM) in assay [4] (setting [5]), 0.063 to 0.125 µg/mL (≈ 0.164 to 0.326 µM) in assay [4] (setting [6]) and greater than 4 µg/mL in the assay with S. aureus C0032.
`O=C(O)CNC(=O)Nc1ccc(Br)cn1` [Compound 8]: at APH(2”)-IVa [1], the ΔTm at 500 µM was -0.25 °C.
Consider `Nc1cc(-c2ccn[nH]2)ccn1` [Compound 68], for which the ΔTm at 500 µM at APH(2”)-IVa [1] is 1.29 °C. Moreover, on APH(2”)-IVa [3], the Ki was 81.9 µM.
Regarding `Nc1ncc(Cl)cc1S(=O)(=O)NCCCN1CCC(O)CC1` [Compound 25], the ΔTm at 500 µM at APH(2”)-IVa [1] was determined as 0.6 °C.
Consider `C[C@@H](O)[C@H]1C(=O)N2C(C(=O)O)=C(S[C@@H]3CN[C@H](CNS(N)(=O)=O)C3)[C@H](C)[C@H]12` [Doripenem], for which the MIC in assay [4] (setting [5]) was 0.5 to 1 µg/mL (≈ 1.19 to 2.38 µM); in assay [4] (setting [6]), 0.25 µg/mL (≈ 0.595 µM); in the assay on S. aureus C0032, greater than 4 µg/mL.
With `Nc1ccc(Br)cn1` [Compound 1], at APH(2”)-IVa [1], the ΔTm at 500 µM was determined as 0.5 °C.
Still for that read-out and setting: the result for `c1cnc2[nH]ccc2c1` [Compound F136, 7-azaindole] reads 0.06 °C; that for `CC1CCCN(S(=O)(=O)c2cc(Cl)cnc2N)C1CN` (centres unmarked) [Compound 22], 0.2 °C.
Still for that read-out and setting: the value for `O=Cc1cncc(-c2cc[nH]n2)c1` [Compound 66] was 0.54 °C.
Regarding `Clc1cnc2[nH]ccc2c1-c1cn[nH]c1` [Compound 84], the affinity on APH(2”)-IVa [3], expressed as Ki, was 1.58 µM.
`O=C(NCc1ccccc1)c1cc(NC2CC2)ncc1Cl` [Compound 36-4] gave an inhibitory constant (Ki) on APH(2”)-IVa [3] of 79.1 µM.
Take `CC(=O)c1cc2ccccc2oc1=O` [Compound F144]: the ΔTm at 500 µM on APH(2”)-IVa [1] was found to be 0.09 °C.
Take `[H]/N=C(/N)N[C@H]1[C@H](O)[C@@H](O)[C@H](O[C@@H]2O[C@@H](C)[C@](O)(C=O)[C@H]2O[C@@H]2O[C@@H](CO)[C@H](O)[C@@H](O)[C@@H]2NC)[C@@H](N/C(N)=N\[H])[C@@H]1O` [Streptomycin]: the MIC in assay [4] (setting [5]) was 32 µg/mL (≈ 55 µM); in assay [4] (setting [6]), 64 µg/mL (≈ 110 µM); in the assay with S. aureus C0032, 2 to 4 µg/mL (≈ 3.44 to 6.88 µM).
For the compound `Nc1cc(N2CCOC(c3ccccc3)C2)c(Cl)cn1` (centres unmarked) [Compound 30], the ΔTm at 500 µM at APH(2”)-IVa [1] was -1.22 °C.
`O=C(NCCc1ccc(O)cc1)c1cc(NC2CC2)ncc1Cl` [Compound 36-2] came in with a Ki at APH(2”)-IVa [3] of 11.9 µM. This lies in the double-digit micromolar range.
The same measure, in the same setting: the result for `O=C(NCCc1ccccc1)c1cc(NC2CC2)ncc1Cl` [Compound 36-1] reads 66.1 µM.
`C[C@@H](O)[C@H]1C(=O)N2C(C(=O)O)=C(S[C@@H]3CN[C@H](C(=O)Nc4cccc(C(=O)O)c4)C3)[C@H](C)[C@H]12` [Ertapenem]: the MIC is greater than 2 µg/mL in assay [4] (setting [5]), 8 to 16 µg/mL (≈ 16.8 to 33.6 µM) in assay [4] (setting [6]) and 4 µg/mL (≈ 8.41 µM) with S. aureus C0032.
On to `OCc1c[nH]c2ncccc12` [Compound F355, 3-hydroxymethyl-7-azaindole], for which, at APH(2”)-IVa [1], the ΔTm at 500 µM is -0.41 °C.
Still for that read-out and setting: the value for `COC(=O)c1cncc(-c2cc[nH]n2)c1` [Compound 67] was 1.16 °C.
`NCC[C@H](O)C(=O)N[C@@H]1C[C@H](N)[C@@H](O[C@H]2O[C@H](CN)[C@@H](O)[C@H](O)[C@H]2O)[C@H](O)[C@H]1O[C@H]1O[C@H](CO)[C@@H](O)[C@H](N)[C@H]1O` [Amikacin]: the results for the minimum inhibitory concentration (MIC) (in assay [4] (setting [5]); in assay [4] (setting [6]); in the assay with S. aureus C0032) were 8 to 32 µg/mL (≈ 13.7 to 54.6 µM), 4 to 8 µg/mL (≈ 6.83 to 13.7 µM) and 16 to 32 µg/mL (≈ 27.3 to 54.6 µM), respectively.
